Measurements published in patent US8106004B2, “Methods of inhibiting tumor cell aggressiveness using the microenvironment of human embryonic stem cells” (Children's Memorial Hospital, priority 2006, dated 2012).

Key:
[1] = test system: C8161 human cutaneous melanoma cells; test: In vivo tumor formation, orthotopic mouse model, C8161 melanoma cells; settings: for tumorigenicity / tumor formation: 250,000 C8161 cells treated with Morpholino before subcutaneous injection, n=5, p<0.05
Protocol: A microenvironment of human embryonic stem cells (H9 CMTX) was prepared as described above. C8161 human cutaneous melanoma cells were exposed to the H9 CMTX or Matrigel for 3 to 4 days prior to transplantation in a mouse model. Nude immunocompromised mice received an injection of the C8161 cells subcutaneously into the midscapular region (to mimic spontaneous metastatic dissemination found in human cancers). The animals were injected using a 25 or 27-gauge needle with 2.5×10^5 tumor cells/mouse in 0.05 ml RPMI media.
As a corollary to these findings, an orthotopic mouse model was used to examine the effect of Nodal inhibition on melanoma tumor formation. For the experimental tumourigenesis model, 5 week old nude mice (Harlan, Madison, Wis.) were injected subcutaneously with 250,000 C8161 cells, treated with control or anti-Nodal Morpholinos, in 50 μL of complete RPMI. Tumor measurements were taken on days 3, 7, 14 and 17 post-injection, and mice were sacrificed on day 17. For the orthotopic mouse tumor formation studies, statistical significance was determined using the Kruskal-Wallis One Way Analysis of Variance on Ranks, followed by Dunn's method.
The derivation and phenotypic characteristics of the human melanoma cell lines have been previously described. Seftor, et. al., 2002, Clin. Experim. Metastas. 19:233-246; Seftor, et. al., 2005 Cancer Res. 65:10164-10169. The melanoma cell lines are maintained in RPMI 1640 medium (Invitrogen) supplemented with 10% fetal bovine serum (FBS, Gemini Bioproducts) and 0.1% gentamycin sulfate with the exception of C81-61 cells which are maintained in Ham's FIO medium supplemented with 15% FBS, 1X Mito+ (BD Bioscience) and gentamycin sulfate. Normal human melanocytes are purchased (Cascade Biologics) or isolated from neonatal foreskins. Seftor, et. al., 2005. A single cell suspension is prepared, added to plastic flasks for the adherence of melanocytes and the cells propagated in Medium 254 with Human Melanocyte Growth Supplement (Cascade Biologics) including, 100 units/ml penicillin, 100 μg/ml streptomycin, and 250 ng/mL amphotericin B. The human embryonic stem cell lines are cultured as previously described. Thomson, et. al., 1998, Science 282:1145-1147. Briefly, cells are grown in 6-well plates precoated with 0.1% porcine gelatin and containing 1.9×10^5 irradiated mouse embryonic fibroblasts (strain CF-1; ATCC) per well. The cells are maintained in medium containing DMEM/F12 (1:1), 20% knock-out serum replacement, non-essential minimal amino acids, L-glutamine (Invitrogen), […], and 4 ng/ml FGF-2 (R&D Systems), and are split with collagenase (1 mg/ml) before the colonies begin to overlap. The cultures are determined to be free of mycoplasma contamination using a PCR-based assay (Roche). […]

Nodal = test: Immunohistochemical analysis of Nodal staining in orthotopic C8161 tumors; type: in vivo, mouse; settings: tumors from C8161 treated with anti-Nodal Morpholino, day 17
C8161 melanoma cells = test: In vivo tumor cell proliferation-to-apoptosis ratio (Ki67/TUNEL), C8161 derived tumors; settings: C8161 treated before injection into mouse
Description: (A) In vivo tumor formation in a mouse injected with MDA-MB-231 cells pre-exposed for 3 days to either a control matrix (Matrigel) or a matrix conditioned by hESCs (H9 CMTX) (n=10) (B) C81-61 cells, transfected with either an empty vector or a Nodal expression construct (n=5), and (C) MDA-MB-231 cells treated with either MO^Control or MO^Nodal (n=10). […] (D) The ratio of tumor cell proliferation to apoptosis for C8161 and MDA-MB-231 derived tumors, determined by immunohistochemical staining for Ki67 and terminal deoxynucleotidyl transferase biotin-dUTP nick-end labeling (TUNEL). Prior to injection into a mouse, C8161 and MDA-MB-231 cells were cultured for 3 days on control or hESC conditioned (H9 CMTX) matrices, or treated with MO^Nodal to knock down Nodal expression. […] (E) Immunohistochemical analysis of Ki67 expression (red/brown) and TUNEL staining in orthotopic melanoma (C8161) and breast carcinoma (MDA-MB-231) tumors. […] Proliferation is indicated by Ki67 staining and apoptotic nuclei were detected with confocal microscopy as red staining localized to the nuclei of apoptotic C8161 or MDA-MB-231 cells. […]
In order to establish a mechanism by which exposure to the hESC microenvironment abrogates tumorigenicity, the effects of this treatment on the in vivo tumor cell proliferation-to-apoptosis ratio were analyzed. […]

[2] = 250,000 C8161 cells treated with anti-Nodal Morpholino before injection

In the case of “MO^Nodal: FITC-conjugated anti-sense Morpholino to Nodal, 5′-AAGCAGCACCTCCAGCCCTTATATC-3′ [SEQ ID NO: 20] (all phosphorodiamidate morpholino (PMO); FITC conjugated, position not given here)”, the “tumorigenicity / tumor formation” value ([1]; listed as MO Nodal) is reported as “reduction in tumor formation”, the “tumorigenicity / tumor formation” value ([1]; listed as MONodal) is reported as “significant reduction” and the “diminution of tumor incidence” value [1, 2] is reported as 30%. For the same substance, the tumor growth [1, 2] was “decrease”, the “Nodal expression in tumors (IHC)” value (Nodal) was “started to regain Nodal expression” and the “ratio of proliferation to apoptosis” value (C8161 melanoma cells) was “decreased”.
